# Paper PMC8728736, “A Reactivity-Based ^18F-Labeled Probe for PET Imaging of Oxidative Stress in Chemotherapy-Induced Cardiotoxicity” (Molecular Pharmaceutics, 2021)
# Several values for one entry are separate records, joined by “and”; a condition that tells them apart may be missing. Equal values may be shown once.
# Legend:
# [1] = Lipophilicity, partition between 1-octanol and PBS; type: physicochemical; conditions: 1-octanol/PBS pH 7.4, shake-flask, n = 6
# Protocol: The lipophilicity of ^18F-FPBT and ^18F-FPBT-Ox was determined by a conventional partition method between 1-octanol and phosphate buffered saline (PBS), pH 7.4. 1-Octanol was presaturated with PBS before use. The radiotracer (∼2 KBq) was added to a mixture of PBS (200 μL) and 1-octanol (200 μL) in a 1.5 mL Eppendorf vial (n = 6). The mixture was vigorously agitated at rt for 5 min and then centrifuged at 3000 g for 10 min. A 100 μL aliquot from each layer was drawn for measurement in a gamma counter. The LogDoct/PBS was calculated as follows: log [(cpm in the 1-octanol layer – cpm 1-octanol blank)/(cpm in the PBS layer – cpm PBS blank)].
# [2] = Serum stability at 37 °C by radio-HPLC; type: in vitro ADME, rat; conditions: serum, 37 °C, up to 30 min
# Protocol: ^18F-FPBT (∼3.0 MBq) in 5% ethanol in PBS (200 μL) containing sodium ascorbate (0.01 mg/mL) was incubated with rat serum (200 μL) at 37 °C for 1 min or 1 h. Subsequently, plasma proteins were precipitated from the supernatant with ice-cold acetonitrile (1.5 mL), and samples were centrifuged (3 min, 13 000 rpm). The residual activity in the pellet was <3%. The supernatant (∼2.0 MBq, 1.0 mL) was analyzed by radio-HPLC. HPLC method: ZORBAX column (300SB-C18, semipreparative 9.4 mm × 250 mm, 5 μm) using acetonitrile and water as the mobile phase, at a flow rate of 3.0 mL/min. The following gradient was used: from 50% to 90% acetonitrile in 15 min; kept at 90% acetonitrile for 10 min; from 90 to 50% acetonitrile in 5 min.
# ^18F-FBPT-Ox (2–4 MBq, 50 μL in 10% EtOH/PBS) was added to serum (500 μL) and incubated at 37 °C for 5, 15, and 30 min, respectively. Plasma proteins were precipitated with a 5-sulfosalicylic acid water solution (10% w/v, 1 mL) and centrifuged (3 min, 13 000 rpm). The supernatant was removed and diluted with 500 μL of DI H2O and analyzed via radio-HPLC. A control experiment was performed where ^18F-FBPT-Ox (2 MBq, 50 μL in 10% EtOH/PBS) was added to 500 μL of PBS, incubated at 37 °C for 30 min. A 5-sulfosalicylic acid water solution (10% w/v, 1 mL) was added, thoroughly mixed, then diluted with 500 μL of DI H2O, and analyzed via radio-HPLC. […]
# [3] = Post-mortem biodistribution in healthy rats; type: in vivo, Wistar rats; conditions: iv; for Ex vivo biodistribution, Blood / Ex vivo biodistribution, Bone / Ex vivo biodistribution, Brain / Ex vivo biodistribution, Heart / Ex vivo biodistribution, Kidney / Ex vivo biodistribution, Large Intestine / Ex vivo biodistribution, Liver / Ex vivo biodistribution, Lung / Ex vivo biodistribution, Muscle / Ex vivo biodistribution, Small Intestine / Ex vivo biodistribution, Spleen / Ex vivo biodistribution, Urine: healthy rats, mean ± SD, n = 3
# Protocol: Wistar rats (male, 319 ± 20 g) were injected intravenously via the tail vein with either ^18F-FPBT (1.0 ± 0.4 MBq) or ^18F-FPBT-Ox (1.1 ± 0.5 MBq). The animals were sacrificed by cervical dislocation at 1, 5, or 30 min postinjection (n = 3/group). Organs and tissues of interest were harvested and weighed, and the radioactivity was measured in a gamma counter. Organ uptake was calculated as the percentage injected dose per gram of tissue mass (% ID/g). Data are reported as mean ± SD.
# [4] = In vivo blood stability of 18F-FPBT-Ox; parameters: species or system Wistar rats; conditions: rats, plasma radio-HPLC with gamma counting, n = 2
# Protocol: Wistar rats (male, 320 ± 20 g) were intravenously injected with ^18F-FPBT-Ox (∼15 MBq). The animals were sacrificed by cervical dislocation at 30 min postinjection (n = 2). Blood samples were collected in heparin-coated tubes. After centrifugation (5 min, 13 000 rpm), the plasma (∼1 mL) was separated. Plasma proteins were subsequently precipitated with 5-sulfosalicylic acid water solution (10% w/v, 1.5 mL) and centrifuged (5 min, 13,000 rpm). The supernatant was removed and diluted with 500 μL of DI H2O and analyzed via radio-HPLC. HPLC method: ZORBAX column (300SB-C18, semipreparative 9.4 mm × 250 mm, 5 μm). Solvent A: H2O. Solvent B: MeCN. Flow rate: 3.0 mL/min; 0–5 min, 0% of B; 5–20 min, 0–50% of B; 20–30 min, 50–0% of B. HPLC eluent was collected every minute in 30 vials separately and submitted to gamma counting. The counts per minute in each vial were plotted against the corresponding time point.
# [5] = Rat model of doxorubicin-induced cardiotoxicity: body weight and echocardiography; type: in vivo, Wistar rats; conditions: rats
# Protocol: (§1) Male Wistar rats (280–300 g) were used in all experiments. Subcutaneous 7 day osmotic pumps (Alzet), containing either doxorubicin (Cambridge Bioscience, 30 mg/kg cumulative dose) or vehicle (sterile 0.9% NaCl), were inserted into rats under 2% isoflurane in 100% oxygen.
# In order to assess cardiac function, all rats were subjected to a cardiac ultrasound (Vevo 770TM, VisualSonics) 1 day prior to and on day 6 of osmotic pump implantation. Rats were anesthetized with 2% isoflurane in 100% oxygen and maintained at 37 °C via a homeothermic platform and rectal thermometer. High-resolution parasternal left ventricle (LV) long axis M-mode and B-mode images were obtained using an RMV710B transducer. Images were analyzed offline using Vevo Software to determine LV function. Data are reported as mean ± SD. Statistical analysis was performed using one-way ANOVA with Tukey’s multiple comparisons test.
# [6] = Ex vivo heart biomarkers of oxidative stress; type: in vivo, Wistar rats; conditions: hearts harvested after PET imaging, n = 4
# Protocol: as §1
# Total glutathione concentration was determined by an enzyme recycling method.[21] Lipid peroxidation was evaluated using the lipid peroxidation (MDA) assay kit from Sigma-Aldrich, which measures the colorimetric product that results from the reaction of malondialdehyde (MDA) present in the tissue with thiobarbituric (TBA) acid. Iron content was measured in isolated mitochondria and cytosolic fractions using the iron colorimetric assay kit from BioVision following the manufacture’s protocol.
compound,measurement,setting,value
[18F]CCC[n+]1c(-c2ccccc2)sc2ccccc21 [^18F-FPBT-Ox],LogD,[1],−1.00 ± 0.04 and ~−1
same,Serum stability (in words),[2],excellent serum stability
same,"Route of clearance / excretion, in words",[3]; healthy Wistar rats,quickly cleared by the kidneys and excreted through the urine
same,"Uptake by major organs (brain, heart, lung, spleen), in words",[3]; healthy Wistar rats,significantly reduced uptake
same,"Ex vivo biodistribution, Blood",[3]; 1 min,0.36 ± 0.12 % ID/g
same,"Ex vivo biodistribution, Bone",[3]; 1 min,0.16 ± 0.14 % ID/g
same,"Ex vivo biodistribution, Brain",[3]; 1 min,0.23 ±0.19 % ID/g
same,"Ex vivo biodistribution, Heart",[3]; 1 min,0.39 ± 0.25 % ID/g
same,"Ex vivo biodistribution, Kidney",[3]; 1 min,4.22 ± 0.20 % ID/g
same,"Ex vivo biodistribution, Large Intestine",[3]; 1 min,0.12 ± 0.07 % ID/g
same,"Ex vivo biodistribution, Liver",[3]; 1 min,1.49 ± 0.65 % ID/g
same,"Ex vivo biodistribution, Lung",[3]; 1 min,0.31 ±0.05 % ID/g
same,"Ex vivo biodistribution, Muscle",[3]; 1 min,0.06 ± 0.02 % ID/g
same,"Ex vivo biodistribution, Small Intestine",[3]; 1 min,0.28 ± 0.20 % ID/g
same,"Ex vivo biodistribution, Spleen",[3]; 1 min,0.26 ± 0.13 % ID/g
same,"Ex vivo biodistribution, Urine",[3]; 1 min,1.39 ± 1.21 % ID/g
same,"Ex vivo biodistribution, Blood",[3]; 5 min,0.15 ± 0.08 % ID/g
same,"Ex vivo biodistribution, Bone",[3]; 5 min,0.09 ± 0.03 % ID/g
same,"Ex vivo biodistribution, Brain",[3]; 5 min,0.14 ± 0.11 % ID/g
same,"Ex vivo biodistribution, Heart",[3]; 5 min,0.18 ± 0.06 % ID/g
same,"Ex vivo biodistribution, Kidney",[3]; 5 min,1.15 ± 0.75 % ID/g
same,"Ex vivo biodistribution, Large Intestine",[3]; 5 min,0.10 ± 0.04 % ID/g
same,"Ex vivo biodistribution, Liver",[3]; 5 min,1.17 ± 0.37 % ID/g
same,"Ex vivo biodistribution, Lung",[3]; 5 min,0.21 ± 0.05 % ID/g
same,"Ex vivo biodistribution, Muscle",[3]; 5 min,0.05 ± 0.02 % ID/g
same,"Ex vivo biodistribution, Small Intestine",[3]; 5 min,1.59 ± 1.93 % ID/g
same,"Ex vivo biodistribution, Spleen",[3]; 5 min,0.11 ± 0.04 % ID/g
same,"Ex vivo biodistribution, Urine",[3]; 5 min,9.29 ± 3.02 % ID/g
same,"Ex vivo biodistribution, Blood",[3]; 30 min,0.09 ± 0.04 % ID/g
same,"Ex vivo biodistribution, Bone",[3]; 30 min,0.12 ± 0.06 % ID/g
same,"Ex vivo biodistribution, Brain",[3]; 30 min,0.07 ± 0.07 % ID/g
same,"Ex vivo biodistribution, Heart",[3]; 30 min,0.11 ± 0.06 % ID/g
same,"Ex vivo biodistribution, Kidney",[3]; 30 min,0.59 ± 0.31 % ID/g
same,"Ex vivo biodistribution, Large Intestine",[3]; 30 min,0.05 ± 0.04 % ID/g
same,"Ex vivo biodistribution, Liver",[3]; 30 min,0.90 ± 0.59 % ID/g
same,"Ex vivo biodistribution, Lung",[3]; 30 min,0.12 ± 0.07 % ID/g
same,"Ex vivo biodistribution, Muscle",[3]; 30 min,0.03 ± 0.00 % ID/g
same,"Ex vivo biodistribution, Small Intestine",[3]; 30 min,0.63 ± 0.64 % ID/g
same,"Ex vivo biodistribution, Spleen",[3]; 30 min,0.07 ± 0.05 % ID/g
same,"Ex vivo biodistribution, Urine",[3]; 30 min,15.80 ± 12.98 % ID/g
same,Time stable in blood post IV injection,[4],at least 30 min
COc1cccc2c1C(=O)c1c(O)c3c(c(O)c1C2=O)C[C@@](O)(C(=O)CO)C[C@@H]3O[C@H]1C[C@H](N)[C@H](O)[C@H](C)O1 [doxorubicin],Body weight decrease,"[5]; doxorubicin 30 mg/kg cumulative dose by 7 day osmotic pump, implantation to day 7, n = 6",16.2 ± 8.9%
same,Reduction of left ventricular ejection fraction at day 6 compared to baseline at day 0,"[5]; doxorubicin 30 mg/kg cumulative dose by osmotic pump, echocardiography",15%
same,Left ventricular ejection fraction compared to time-matched vehicle controls at day 6,[5]; echocardiography,cannot detect the statistical difference
same,"Cardiac oxidative stress biomarkers (glutathione, maldonaldehyde, mitochondrial iron, cytosolic iron) compared to saline control group",[6],marginally higher
